Assay results as given in US20220334127A1, “IN VITRO METHOD FOR OBTAINING CLINICAL DATA IN PATIENTS SUFFERING FROM AN INFLAMMATORY DISEASE” (FUNDACIÓN PARA LA FORMACIÓN E INVESTIGACIÓN SANITARIAS DE …, priority 2019, published 2022).

Test system: P2X7 receptor
Experiment: Mitochondrial membrane depolarization (JC-10) after P2X7 receptor stimulation with ATP in monocytes and macrophages
Format: cell-based, mouse
Conditions: ATP 3 mM
From the text: FIG. 5. P2X7 receptor induces mitochondrial membrane depolarization. (a) Mitochondrial membrane potential from blood monocytes stained with JC-10 in a control healthy donor (left), in a septic patient at day 1 (middle), and from healthy controls, abdominal surgery and septic patients at day 1 or 120 (right); PE^− cells represent the monocytes with mitochondrial depolarization. (b) Correlation between the percentage of monocytes with mitochondrial membrane depolarization and the quantification of P2X7 receptor MFI in monocytes from the septic patients; IC: immunocompromised septic patients. (c) Kinetics of mitochondrial depolarization after ATP (3 mM) stimulation of LPS-primed BMDMs incubated or not with the P2X7 receptor antagonist A438079 (10 μM). (d) Percentage of human monocytes from healthy donors with mitochondrial membrane depolarization after ATP (3 mM, 30 min) stimulation and incubated or not with the P2X7 receptor antagonist AZ11645373 (10 μM). […]
Mitochondrial membrane potential was measured using the JC-10 dye (Abcam) in BMDMs with a Sinergy Mx plate reader (BioTek) or by flow cytometry using the BD FACS Celesta flow cytometer (BD Biosciences), or in human monocytes (CD14^+ labelled with anti-CD14 APC-H7, clone MφP9, BD Biosciences) using FACS Canto (BD Biosciences), following the indications of manufacturer.

With `Nc1ncnc2c1ncn2[C@@H]1O[C@H](COP(=O)(O)OP(=O)(O)OP(=O)(O)O)[C@@H](O)[C@H]1O` [ATP, adenosine triphosphate] the “mitochondrial membrane depolarization by the agent itself” value was “induced”.
